Assay results taken from US7332476B2, “Pyridyl substituted ketolide antibiotics” (Novartis AG, priority 2003, dated 2008).
≈ marks a conversion by molar mass, not a printed value.

Key:
[1] = In vivo pharmacokinetic study in rats, whole lung (IV and PO); conditions: male, Sprague-Dawley, 5 mg/kg, rat
Description: (§1) Animal Models. A total of 54 male Sprague-Dawley rats, weighing 200 grams in average, were evaluated for pharmacokinetic studies of representative pyridyl substituted ketolides. Rats were under overnight food restriction and received water ad libitum. Rats were acclimated for approximately 5 days before antibiotic administration.
(§2) Antibiotic Administration. Rats were given bolus administration through (IV) and oral (PO) routes. Representative pyridyl substituted ketolides and telithromycin, for comparison, were diluted in 0.85% saline to a concentration of 15.0 mg/ml, and the resulting pH was adjusted using 1N acetic acid until the compound was in solution. Approximately 200 microliters of the compound solution was administered to the rats. The target dose for IV and PO administration was 5 mg/kg and 15 mg/kg, respectively.
(§3) Sample Collection. Plasma and whole lung samples were collected from the rats. Plasma samples were obtained from blood samples by centrifugation at 3000 RPM for 10 min. Heparin was added in the plasma as an anticoagulant. Whole lung samples were homogenized in deionized water. Samples were stored at −80° C. A total of 9 time points were collected in triplicate at 0.083, 0.25, 0.5, 1, 2, 4, 6, 8, and 24 hrs. Ketolide concentrations in plasma and lung were determined by well-established non-GLP LC-MS-MS methods. PK parameters were estimated from the raw bioanalytical data using WinNolin software (Version 4.0, Pharsight Corporation, CA). […] All representative compounds were compared to telithromycin.

[2] = system: Streptococcus pneumoniae Stpn_280-962; test: MIC, broth microdilution (NCCLS); assay type: cell-based; parameters: MIC, strain ID O: unit not given beside the values; conditions: strain ID O; broth microdilution
How it was run: (§4)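 Broth microdilution per NCCLS in cation-adjusted Mueller-Hinton broth, with 2-5% lysed horse blood added for S. pneumoniae. Inoculum 3×10^5–7×10^5 CFU/ml, 2-fold drug dilutions, 18-24 h at 35° C; S. pneumoniae under 5-10% CO2, others ambient air. MIC = lowest concentration preventing visible growth.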

[3] = system: Streptococcus pneumoniae Stpn_297-749; test: MIC, broth microdilution (NCCLS); assay type: cell-based; parameters: MIC, strain ID N: unit not given here; conditions: strain ID N; broth microdilution
How it was run: as §4

[4] = system: Streptococcus pneumoniae Stpn_49619; test: MIC, broth microdilution (NCCLS); assay type: cell-based; parameters: MIC, strain ID M: unit not given beside the values; conditions: strain ID M; broth microdilution
How it was run: as §4

[5] = system: Haemophilus influenzae Hain_960820544-3; test: MIC, broth microdilution (NCCLS); assay type: cell-based; conditions: strain ID J; broth microdilution; in µg/mL (unit assumed)
How it was run: (§5)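 Broth microdilution per NCCLS in cation-adjusted Mueller-Hinton broth, or Haemophilus Test Medium for H. influenzae, with 2-fold serial drug dilutions and 3×10^5–7×10^5 CFU/ml inoculum. Trays incubated 18-24 hours at 35° C (H. influenzae in 5-10% CO2). MIC = lowest concentration preventing visible growth.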

[6] = system: Enterococcus faecalis Enfa_bc 11148-2; test: MIC, broth microdilution (NCCLS); assay type: cell-based; conditions: strain ID F; broth microdilution; in µg/mL (unit assumed)
How it was run: as §5

[7] = system: Staphylococcus aureus Stau_33591; test: MIC, broth microdilution (NCCLS); assay type: cell-based; conditions: strain ID B; broth microdilution; unit assumed
How it was run: as §5

[8] = system: Haemophilus influenzae Hain_2762; test: MIC, broth microdilution (NCCLS); assay type: cell-based; conditions: strain ID L; broth microdilution; in µg/mL (unit assumed)
How it was run: as §5

[9] = system: Haemophilus influenzae Hain_960730503-3; test: MIC, broth microdilution (NCCLS); assay type: cell-based; conditions: strain ID I; broth microdilution; in µg/mL (unit assumed)
How it was run: as §5

[10] = system: Haemophilus influenzae Hain_953460299-3; test: MIC, broth microdilution (NCCLS); assay type: cell-based; conditions: strain ID K; broth microdilution; in µg/mL (unit assumed)
How it was run: as §5

[11] = system: Staphylococcus aureus Stau_29213; test: MIC, broth microdilution (NCCLS); assay type: cell-based; conditions: strain ID A; broth microdilution; in µg/mL (unit assumed)
How it was run: as §4

[12] = system: Haemophilus influenzae Hain_49247; test: MIC, broth microdilution (NCCLS); assay type: cell-based; conditions: strain ID H; broth microdilution; unit assumed
[13] = system: Streptococcus pneumoniae Stpn_Erm S 4297; test: MIC, broth microdilution (NCCLS); assay type: cell-based; conditions: strain ID Q; broth microdilution
How it was run: as §4

[14] = system: Staphylococcus epidermidis Step_14990; test: MIC, broth microdilution (NCCLS); assay type: cell-based; conditions: strain ID C; broth microdilution; in µg/mL (unit assumed)
How it was run: as §4

[15] = system: Staphylococcus epidermidis Step_f50654; test: MIC, broth microdilution (NCCLS); assay type: cell-based; conditions: strain ID D; broth microdilution; in µg/mL (unit assumed)
How it was run: as §4

[16] = system: Enterococcus faecalis Enfa_29212; test: MIC, broth microdilution (NCCLS); assay type: cell-based; conditions: strain ID E; broth microdilution
How it was run: as §4

[17] = system: Streptococcus pyogenes Stpy_8668; test: MIC, broth microdilution (NCCLS); assay type: cell-based; parameters: MIC, strain ID G: unit not given beside the values; conditions: strain ID G; broth microdilution
How it was run: as §4

[18] = system: S. pneumoniae Stpn_Erm 6849; test: MIC, broth microdilution (NCCLS); assay type: cell-based, Streptococcus pneumoniae; conditions: strain ID P; broth microdilution; in µg/mL (unit assumed)
How it was run: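 Lowest drug concentration giving no visible growth after 18-24 hours at 35° C. under 5-10% CO2 was taken as MIC. Twofold serial dilutions in CAMHB plus 2-5% lysed horse blood, final inoculum 3×10^5–7×10^5 CFU/ml, per NCCLS microdilution.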

[19] = In vivo pharmacokinetic study in rats, plasma (IV and PO); parameters: species or system Sprague-Dawley rats; conditions: rat
Description: as §1, §2, §3

C=C[C@]12OC(=O)N(CCCCn3cnc(-c4cnccc4Cl)c3)[C@@H]1[C@@H](C)C(=O)[C@H](C)C[C@](C)(OC)[C@H](OC1O[C@H](C)C[C@H](N(C)C)[C@H]1O)[C@@H](C)C(=O)[C@@H](C)C(=O)O[C@@H]2CC (stereo partly drawn) [XXX]
half-life ([1]; IV, whole lung, read-out: t1/2, IV Lung (converted)): 1.2 h
Kp ([1]; lung/plasma, iv, read-out: L/P ratio, IV): 75
MIC, strain ID O [2]: =0.05
MIC, strain ID N [3]: =0.05
MIC, strain ID M [4]: =0.05
MIC, strain ID J [5]: 6.25
MIC, strain ID F [6]: 0.4
MIC, strain ID B [7]: > 50 µg/mL
MIC, strain ID L [8]: 0.78
MIC, strain ID I [9]: 6.25
MIC, strain ID K [10]: 3.13
MIC, strain ID A [11]: 0.2
MIC, strain ID H [12]: 3.13 µg/mL (≈ 3.65 µM)
MIC, strain ID Q [13]: =0.05
MIC, strain ID C [14]: 0.2
MIC, strain ID D [15]: 0.1
MIC, strain ID E [16]: =0.05
MIC, strain ID G [17]: =0.05
MIC, strain ID P [18]: 0.4
half-life ([19]; male, Sprague-Dawley, 5 mg/kg, IV, plasma, read-out: t1/2, IV Plasma (converted)): 1 h
AUC ([19]; male, Sprague-Dawley, plasma, IV, dose IV = 5 mg/kg (Compound XIV: IV = 15)): 2100 ng·h/mL
clearance ([19]; male, Sprague-Dawley, plasma, intravenous): 121 mL/min/kg
Vd ([19]; male, Sprague-Dawley, plasma, intravenous, read-out: Vss): 8 L/kg
F, PO ([19]; PO = 15 mg/kg): 21%
